Residues, ends and D or L forms follow the SMILES beside them.
What was measured:
Type in all cases: cell-based
wildtype human ASIC1a = biological target: T1, wildtype human ASIC1a (Homo sapiens, UniProt P78348); test: FRRFa modulation of acid-evoked currents, two-electrode voltage clamp in Xenopus oocytes
T1 construct: expressed in transfected cells; host or cells: Xenopus laevis oocytes (nuclear injection of pMT3 expression plasmid)
T1 sequence (P78348 1-528): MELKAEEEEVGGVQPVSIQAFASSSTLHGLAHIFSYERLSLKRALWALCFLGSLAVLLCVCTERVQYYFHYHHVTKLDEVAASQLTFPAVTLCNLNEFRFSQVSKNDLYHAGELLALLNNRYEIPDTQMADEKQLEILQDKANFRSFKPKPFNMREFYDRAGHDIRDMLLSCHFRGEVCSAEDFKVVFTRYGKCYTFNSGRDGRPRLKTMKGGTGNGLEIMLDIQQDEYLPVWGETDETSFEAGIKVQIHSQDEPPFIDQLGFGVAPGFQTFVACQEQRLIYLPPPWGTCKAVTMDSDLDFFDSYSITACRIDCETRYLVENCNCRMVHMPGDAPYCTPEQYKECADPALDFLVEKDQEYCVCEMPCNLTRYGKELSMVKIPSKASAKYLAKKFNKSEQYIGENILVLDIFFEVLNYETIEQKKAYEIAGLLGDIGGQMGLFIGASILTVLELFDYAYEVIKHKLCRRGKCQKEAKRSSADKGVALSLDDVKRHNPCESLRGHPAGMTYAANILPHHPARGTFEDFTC
Experimental: (§1) The Stratagene QuikChange® site-directed mutagenesis kit (Cedar Creek, TX) was used to introduce point mutations into the human ASIC1a cDNA (GENBANK accession number NM_001095) within the pMT3 expression vector. Mutations were confirmed by DNA sequencing at the Plant-Microbe Genomics Facility at The Ohio State University and high quality plasmid DNA was prepared for injection using Qiagen (Valencia, CA) Midi prep kits. Female Xenopus laevis were purchased from Xenopus I (Dexter, MI) and Xenopus oocytes were isolated using standard procedures. This work was implemented in accordance with the Guide for the Care and Use of Laboratory Animals of the National Institutes of Health and approved by the Institutional Animal Care and Use Committee of The Ohio State University (protocol # 2009A0161-R1). The oocyte removal surgery was performed under tricaine methanesulfonate (MS222) anesthesia and all efforts were made to minimize suffering. Ovarian lobes were removed and digested for 1.5-2 hours at room temperature with 1.2 mg/ml collagenase in Modified Barth’s solution lacking calcium (24 mM NaHCO3, 88 mM NaCl, 15 mM HEPES, 1 mM KCl, 0.8 mM MgSO4, 125 units/liter penicillin/streptomycin) to separate individual oocytes and remove follicular membranes. Healthy stage IV and V oocytes were selected and maintained in Modified Barth’s solution containing calcium (0.4 mM CaCl2 and 0. 3 mM Ca(NO3)2). The nuclei of isolated oocytes were injected with ~5 ng of a 100 ng/µl stock of wildtype or mutant ASIC1a expression plasmids using a PV820 pneumatic picopump (World Precision Instruments, Sarasota, FL). Oocytes were incubated at 18 °C for 18-96 hours before experiments were performed. […]
(§2) In order to obtain the pH dependence of activation, basal pH was maintained at pH 7.4. […] Peak current amplitude was measured for each test pH and normalized to the average peak amplitude of flanking pH 5.0 currents to minimize the impact of potential tachyphylaxis. […] As before, maximal currents were measured before and after test conditioning pH to minimize the effect of possible tachyphylaxis of proton-gated current. […]

human ASIC1a L280C [1] = biological target: T2, human ASIC1a L280C (Homo sapiens, UniProt P78348, L280C); test: FRRFa / FRRF (no amide) modulation of acid-evoked currents, two-electrode voltage clamp in Xenopus oocytes
T2 construct: expressed in transfected cells; host or cells: Xenopus laevis oocytes (nuclear injection of pMT3 expression plasmid)
T2 sequence (P78348 1-528 L280C): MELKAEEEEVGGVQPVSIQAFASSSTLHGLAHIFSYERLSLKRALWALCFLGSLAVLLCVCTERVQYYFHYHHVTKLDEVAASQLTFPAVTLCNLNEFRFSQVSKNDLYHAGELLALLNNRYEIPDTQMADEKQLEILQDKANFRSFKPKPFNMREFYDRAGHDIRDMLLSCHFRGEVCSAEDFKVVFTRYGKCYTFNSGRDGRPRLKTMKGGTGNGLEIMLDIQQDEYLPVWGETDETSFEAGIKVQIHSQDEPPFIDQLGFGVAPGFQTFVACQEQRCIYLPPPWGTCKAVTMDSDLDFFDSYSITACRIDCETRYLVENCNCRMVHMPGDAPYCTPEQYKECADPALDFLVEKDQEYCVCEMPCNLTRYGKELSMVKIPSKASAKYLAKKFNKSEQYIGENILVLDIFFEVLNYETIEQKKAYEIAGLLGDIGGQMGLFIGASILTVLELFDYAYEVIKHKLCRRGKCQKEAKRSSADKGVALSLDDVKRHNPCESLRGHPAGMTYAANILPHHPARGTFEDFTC
Experimental: as §1, §2

human ASIC1a L280C [2] = biological target: T2, human ASIC1a L280C; test: Peptide-MTSET competition (MTSET modification in presence of peptide, residual current read-out); details: 100 µM peptide + 300 µM MTSET at pH 7.4
Experimental: The Stratagene QuikChange® site-directed mutagenesis kit (Cedar Creek, TX) was used to introduce point mutations into the human ASIC1a cDNA (GENBANK accession number NM_001095) within the pMT3 expression vector. Mutations were confirmed by DNA sequencing at the Plant-Microbe Genomics Facility at The Ohio State University and high quality plasmid DNA was prepared for injection using Qiagen (Valencia, CA) Midi prep kits. Female Xenopus laevis were purchased from Xenopus I (Dexter, MI) and Xenopus oocytes were isolated using standard procedures. This work was implemented in accordance with the Guide for the Care and Use of Laboratory Animals of the National Institutes of Health and approved by the Institutional Animal Care and Use Committee of The Ohio State University (protocol # 2009A0161-R1). The oocyte removal surgery was performed under tricaine methanesulfonate (MS222) anesthesia and all efforts were made to minimize suffering. […]
Vehicle or 100 µM peptide was applied for 1 minute at pH 7.4. […] Before residual current was measured, oocytes were washed with at least 50 mL of pH 7.4 over 10 minutes in order to remove peptides. […]

Compound | increase in τinact with FRRFamide (wildtype human ASIC1a; 100 µM FRRFa vs control, mean ± SEM, n = 14, SEM) [%] | difference in response between 100µM and 300µM FRRFa (wildtype human ASIC1a; residual current, n = 5, p = 0.69 paired t-test (not significant)) | EC50 (wildtype human ASIC1a; responses normalized to 100 µM FRRFa, mean ± SEM, n = 6-8, SEM, read-out: EC50 of FRRFa modulation (effect on residual current)) [µM] | increase in τinact with FRRFamide (human ASIC1a L280C [1]; 100 µM FRRFa vs control, mean ± SEM, n = 17, p = 6x10^-5 vs wildtype, SEM) [%] | EC50 (human ASIC1a L280C [1]; responses normalized to 100 µM FRRFa, mean ± SEM, n = 6-8, p = 0.34 vs wildtype, SEM, read-out: EC50 of FRRFa modulation (effect on residual current)) [µM] | residual current (Iresidual/Itransient) (human ASIC1a L280C [1]; 100 µM peptide 1 min at pH 7.4 before pH 5.0, current at 60 s normalized to peak, p = 2x10^-6 vs FRRFa) [%] | effect of peptide on MTSET modification (human ASIC1a L280C [2])
N=C(N)NCCC[C@H](NC(=O)[C@H](CCCNC(=N)N)NC(=O)[C@@H](N)Cc1ccccc1)C(=O)N[C@@H](Cc1ccccc1)C(N)=O [FRRFa, FRRFamide] (H-FRRF-NH2) | 45 ± 6 | 10.42% ± 11.25 | 20 ± 4 | 131 ± 16 | 14 ± 4 |  | 
FRRF [FRRF (no amide), peptide FRRF lacking the c-terminal amide, used as a control] |  |  |  |  |  | 5.6 ± 0.8 | did not interfere with MTSET modification

Reference: PMC3743763, “Conformational Changes in the Lower Palm Domain of ASIC1a Contribute to Desensitization and RFamide Modulation” (PLoS ONE, 2013)
